Common to all, as to assay: NCI anticancer screen, dose series, 48 h
For test [1], the system named is EKVX NSCLC.
The subject of test [2] is HCT-116 colon.
Test [3] relates to NCI-H23 lung.
Test [4] relates to COLO 205 colon.
The test system of test [5] is U251 CNS.
Test [6] deals with LOX IMVI melanoma.
The subject of test [7] is NCI/ADR-RES ovarian.
The test system of test [8] is HS 578T breast.
Test [9] has as its system MALME-3M melanoma.
Test [10] has as its system MOLT-4 leukemia.

The structures appear in SMILES notation. Several values for one entry are separate records, joined by “and”; a condition that tells them apart may be missing. Equal values may be shown once.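 Five compound concentrations were applied to cells in 96-well plates for 48 hours; endpoints were derived by simple linear interpolation of the resulting dose-response curve. GI50 = concentration required for 50% inhibition of growth. TGI marks complete inhibition of growth.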

Regarding `CO/C(=N\N=C\c1cccc(C(F)(F)F)c1)c1ccncc1`, the TGI in test [1] was 77.3 µM; in test [2], greater than 100 µM; in test [3], 42.6 µM; in test [4], 39.6 µM; in test [5], 80.2 µM; in test [6], greater than 100 µM. The values for the TGI in test [8] and in test [9] were 38.7 µM and greater than 100 µM, respectively. In addition, the GI50 is 10.2 µM in [6], 5.37 µM in test [7] and 9.42 µM in test [9].

Turning to `COc1cc2c3c(n(C)c(=O)c2cc1OC)-c1cc2c(cc1/C3=C/[C@H](N)CCCCN)OCO2`, the GI50 in [1] was 5.93 µM; in [2], 0.564 µM; in test [3], 2.52 µM; in test [4], 1.18 µM; in test [6], 0.63 µM; in test [7] it was 5.19 µM. Further, the values for the GI50 in [8] and in test [9] were 2.52 µM and 0.0491 µM, respectively. In addition, the TGI was greater than 24.8 µM in [1]; 2.24 µM in test [2]; 21.9 µM in [3]; greater than 19.8 µM in test [4]; greater than 100 µM in [10]; 2.37 µM in test [6]. For the same molecule, the TGI in test [7] is greater than 27.1 µM; in test [8], 17.4 µM; in [9], 0.7 µM.

As to `CCCCCCCCCCCCCCCCn1cc[n+](Cc2ccccc2)c1C`, the GI50 in test [1] was 0.703 µM; in test [3], 0.361 µM; in test [10] it was 2.46 µM; in test [7], 8.02 µM and 1.55 µM; in test [8] it was 3.62 µM; in test [9] it was 0.809 µM. The TGI in test [1] was 2.28 µM; in test [3], 1.8 µM; in test [10], greater than 100 µM; in [7], 48.6 µM and 7.01 µM; in [8], greater than 100 µM; in test [9] it was 2.61 µM.

Regarding `CO/N=C(/COc1c(-c2ccccc2)oc2ccccc2c1=O)c1ccc(F)cc1`, the GI50 was greater than 100 µM in test [1]; 39.3 µM in test [2]; greater than 100 µM in test [3]; greater than 100 µM in test [4]; 33.9 µM in test [5]; 69.9 µM in test [6]. The GI50 in test [7] is 86.4 µM; in test [8], 30.2 µM; in test [9] it was 52.9 µM. In addition, the TGI in test [1], in [2], in [3], in [4], in test [5] and in test [6] was greater than 100 µM in each case. In addition, the TGI in [7], in test [8] and in test [9] was greater than 100 µM each time.

On to `CN(C)CCNC(=O)c1nc([N+](=O)[O-])cn1C`, for which the TGI in test [2], in test [3], in test [4], in test [5], in [10] and in [6] was greater than 100 µM each time. Also, the TGI in test [7], in [8] and in [9] was greater than 100 µM in each case.

Turning to `COc1ccc(-c2csc3c2-n2cccc2C3=O)cc1O`, the GI50 was 0.0271 µM in test [2]; 0.056 µM in test [3]; 9.77 µM in test [4]; 0.0332 µM in test [5]; 0.132 µM in test [10]; less than 0.0182 µM in test [6]. The GI50 in test [7] was 0.0143 µM; in test [8], less than 0.0165 µM; in test [9], 35.3 µM. Besides, the TGI in test [2] was 17 µM; in test [3], greater than 42.4 µM; in test [4], 26.3 µM; in test [5] it was greater than 47.4 µM; in test [10], 6.1 µM; in test [6], greater than 100 µM. The TGI in test [7], in test [8] and in test [9] was greater than 100 µM in each case.

On to `C=C1C(=O)O[C@H]2C[C@@H]1CCC1(C)OC1CC/C(C)=C/CC[C@H]2C` (some centres undefined), for which the GI50 is 24.3 µM in [1]; 17.7 µM in [2]; 19.6 µM in [3]; 15.6 µM in [4]; 17.7 µM in test [5]; 18 µM in test [10]. The GI50 in test [6] is 24 µM; in test [7] it was 18.5 µM; in [8] it was 24 µM. Further, the TGI in test [1] came out at 44.3 µM; in test [2], 31.5 µM; in test [3], 37.1 µM; in test [4], 36.2 µM; in test [5], 31.5 µM; in test [10] it was 33.5 µM. Also, the TGI was found to be 38.6 µM in test [6], 35.4 µM in [7] and 61 µM in test [8].

`Cc1cn2c(=O)n(c1=O)Cc1ccccc1C2`: the GI50 in test [1] is greater than 100 µM; in test [2] it was 27.3 µM; in test [3], greater than 100 µM; in test [4] it was 1.04 µM; in [5] it was greater than 100 µM; in test [6] it was 32 µM. For the same molecule, the results for the GI50 in test [7], in [8] and in test [9] were greater than 100 µM, 8.97 µM and greater than 100 µM, respectively. Moreover, the TGI was greater than 100 µM in test [1]; greater than 100 µM in test [2]; greater than 100 µM in test [3]; 31.9 µM in test [4]; greater than 100 µM in test [5]; greater than 100 µM in test [6]. The TGI in test [7], in test [8] and in test [9] was greater than 100 µM throughout.

In the case of `N=C(N)c1ccc(-c2ccc(-c3ccc(F)cc3)o2)o1`, the GI50 in test [1] is 1.35 µM; in test [2] it was 1.18 µM; in test [3] it was 1.93 µM; in [4], 1.6 µM; in test [5] it was 1.6 µM; in test [10], 1.6 µM. Further, the GI50 was 1.67 µM in [7], 1.95 µM in [8] and 1.63 µM in test [9]. Also, the TGI in [1] amounted to 3.18 µM; in test [2], 2.59 µM; in test [3], 4.88 µM; in [4] it was 3.15 µM; in test [5], 3.08 µM; in [10], 4.68 µM. Also, the TGI in test [7] came out at 4.1 µM; in [8], 4.82 µM; in test [9], 3.26 µM.

(Values after PubChem BioAssay (NCI).)
